Reference: PubChem BioAssay (NCI)
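Protocol summary: plate cells (96-well), add compound at 5 concentrations, incubate 48 h, interpolate endpoints linearly. The concentration for 50% growth inhibition is given as GI50. Definition used: TGI = concentration required for complete inhibition of growth.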

How the values were obtained:
Assay in all cases: DTP human tumour cell line panel, 48 h
786-0 renal = test system: 786-0 renal
A498 renal = test system: A498 renal
A549 NSCLC = test system: A549 NSCLC
ACHN renal = test system: ACHN renal
BT-549 breast = test system: BT-549 breast
CAKI-1 renal = test system: CAKI-1 renal
CCRF-CEM leukemia = test system: CCRF-CEM leukemia
COLO 205 colon = test system: COLO 205 colon
DU-145 prostate = test system: DU-145 prostate
EKVX NSCLC = test system: EKVX NSCLC
HCC-2998 colon = test system: HCC-2998 colon
HCT-116 colon = test system: HCT-116 colon
HCT-15 colon = test system: HCT-15 colon
HL-60(TB) leukemia = test system: HL-60(TB) leukemia
HOP-62 NSCLC = test system: HOP-62 NSCLC
HOP-92 NSCLC = test system: HOP-92 NSCLC
HS 578T breast = test system: HS 578T breast
HT29 colon = test system: HT29 colon
IGROV1 ovarian = test system: IGROV1 ovarian
K-562 leukemia = test system: K-562 leukemia
KM12 colon = test system: KM12 colon
LOX IMVI melanoma = test system: LOX IMVI melanoma
M14 melanoma = test system: M14 melanoma
MALME-3M melanoma = test system: MALME-3M melanoma
MCF7 breast = test system: MCF7 breast
MDA-MB-231 breast = test system: MDA-MB-231 breast
MDA-MB-435 = test system: MDA-MB-435
MOLT-4 leukemia = test system: MOLT-4 leukemia
NCI-H226 lung = test system: NCI-H226 lung
NCI-H23 lung = test system: NCI-H23 lung
NCI-H460 lung = test system: NCI-H460 lung
NCI-H522 lung = test system: NCI-H522 lung
NCI/ADR-RES ovarian = test system: NCI/ADR-RES ovarian
OVCAR-3 ovarian = test system: OVCAR-3 ovarian
OVCAR-4 ovarian = test system: OVCAR-4 ovarian
OVCAR-5 ovarian = test system: OVCAR-5 ovarian
OVCAR-8 ovarian = test system: OVCAR-8 ovarian
PC-3 prostate = test system: PC-3 prostate
RPMI-8226 leukemia = test system: RPMI-8226 leukemia
RXF 393 renal = test system: RXF 393 renal
SF-268 CNS = test system: SF-268 CNS
SF-295 CNS = test system: SF-295 CNS
SF-539 CNS = test system: SF-539 CNS
SK-MEL-2 melanoma = test system: SK-MEL-2 melanoma
SK-MEL-28 melanoma = test system: SK-MEL-28 melanoma
SK-MEL-5 melanoma = test system: SK-MEL-5 melanoma
SK-OV-3 ovarian = test system: SK-OV-3 ovarian
SN12C renal = test system: SN12C renal
SNB-19 CNS = test system: SNB-19 CNS
SNB-75 CNS = test system: SNB-75 CNS
SR leukemia = test system: SR leukemia
SW-620 colon = test system: SW-620 colon
T-47D breast = test system: T-47D breast
TK-10 renal = test system: TK-10 renal
U251 CNS = test system: U251 CNS
UACC-257 melanoma = test system: UACC-257 melanoma
UACC-62 melanoma = test system: UACC-62 melanoma
UO-31 renal = test system: UO-31 renal

Q: With COc1ccc2c(c1)/C(=N/OC(C)=O)c1c-2c(Nc2ccc(/C(C)=N/OC(C)=O)cc2)nc2ccccc12 as the molecule, how does the GI50 (786-0 renal) read?
A: > 100 µM

Q: What about the TGI (786-0 renal) of the same molecule?
A: > 100 µM

Q: And the GI50 (A498 renal)?
A: > 100 µM

Q: What about the TGI (A498 renal) of the same molecule?
A: > 100 µM

Q: What about the GI50 (A549 NSCLC) of the same molecule?
A: 59.6 µM

Q: And the TGI (A549 NSCLC)?
A: > 100 µM

Q: What about the GI50 (ACHN renal) of the same molecule?
A: 56.6 µM

Q: What about the TGI (ACHN renal) of the same molecule?
A: > 100 µM

Q: What about the GI50 (BT-549 breast) of the same molecule?
A: > 100 µM

Q: What about the TGI (BT-549 breast) of the same molecule?
A: > 100 µM

Q: What about the GI50 (CAKI-1 renal) of the same molecule?
A: 31.8 µM

Q: And the TGI (CAKI-1 renal)?
A: 98.2 µM

Q: What about the GI50 (CCRF-CEM leukemia) of the same molecule?
A: 23.9 µM

Q: And the TGI (CCRF-CEM leukemia)?
A: 47.4 µM

Q: What about the GI50 (COLO 205 colon) of the same molecule?
A: > 100 µM

Q: What about the TGI (COLO 205 colon) of the same molecule?
A: > 100 µM

Q: And the GI50 (DU-145 prostate)?
A: 43.2 µM

Q: And the TGI (DU-145 prostate)?
A: > 100 µM

Q: And the GI50 (EKVX NSCLC)?
A: 82.1 µM

Q: What about the TGI (EKVX NSCLC) of the same molecule?
A: > 100 µM

Q: What about the GI50 (HCC-2998 colon) of the same molecule?
A: 26 µM

Q: What about the TGI (HCC-2998 colon) of the same molecule?
A: 59 µM

Q: And the GI50 (HCT-116 colon)?
A: 35 µM

Q: And the TGI (HCT-116 colon)?
A: > 100 µM

Q: What about the GI50 (HCT-15 colon) of the same molecule?
A: 57.5 µM

Q: And the TGI (HCT-15 colon)?
A: > 100 µM

Q: And the GI50 (HL-60(TB) leukemia)?
A: 16.3 µM

Q: And the TGI (HL-60(TB) leukemia)?
A: > 100 µM

Q: And the GI50 (HOP-62 NSCLC)?
A: 38.1 µM

Q: And the TGI (HOP-62 NSCLC)?
A: > 100 µM

Q: What about the GI50 (HOP-92 NSCLC) of the same molecule?
A: 70.1 µM

Q: What about the TGI (HOP-92 NSCLC) of the same molecule?
A: > 100 µM

Q: And the GI50 (HS 578T breast)?
A: 66 µM

Q: And the TGI (HS 578T breast)?
A: > 100 µM

Q: And the GI50 (HT29 colon)?
A: > 100 µM

Q: And the TGI (HT29 colon)?
A: > 100 µM

Q: What about the GI50 (IGROV1 ovarian) of the same molecule?
A: 71.6 µM

Q: And the TGI (IGROV1 ovarian)?
A: > 100 µM

Q: What about the GI50 (K-562 leukemia) of the same molecule?
A: 40.4 µM

Q: What about the TGI (K-562 leukemia) of the same molecule?
A: > 100 µM

Q: What about the GI50 (KM12 colon) of the same molecule?
A: 43.5 µM

Q: And the TGI (KM12 colon)?
A: > 100 µM

Q: What about the GI50 (LOX IMVI melanoma) of the same molecule?
A: 29.1 µM

Q: What about the TGI (LOX IMVI melanoma) of the same molecule?
A: 63.5 µM

Q: What about the GI50 (M14 melanoma) of the same molecule?
A: 68.9 µM

Q: What about the TGI (M14 melanoma) of the same molecule?
A: > 100 µM

Q: What about the GI50 (MALME-3M melanoma) of the same molecule?
A: 56.8 µM

Q: What about the TGI (MALME-3M melanoma) of the same molecule?
A: > 100 µM

Q: What about the GI50 (MCF7 breast) of the same molecule?
A: 53 µM

Q: What about the TGI (MCF7 breast) of the same molecule?
A: > 100 µM

Q: And the GI50 (MDA-MB-231 breast)?
A: > 100 µM

Q: And the TGI (MDA-MB-231 breast)?
A: > 100 µM

Q: What about the GI50 (MDA-MB-435) of the same molecule?
A: 86.2 µM

Q: What about the TGI (MDA-MB-435) of the same molecule?
A: > 100 µM

Q: And the GI50 (MOLT-4 leukemia)?
A: 26.1 µM

Q: What about the TGI (MOLT-4 leukemia) of the same molecule?
A: 72.8 µM

Q: And the GI50 (NCI-H226 lung)?
A: > 100 µM

Q: What about the TGI (NCI-H226 lung) of the same molecule?
A: > 100 µM

Q: What about the GI50 (NCI-H23 lung) of the same molecule?
A: 35.5 µM

Q: And the TGI (NCI-H23 lung)?
A: > 100 µM

Q: What about the GI50 (NCI-H460 lung) of the same molecule?
A: 35.7 µM

Q: And the TGI (NCI-H460 lung)?
A: > 100 µM

Q: What about the GI50 (NCI-H522 lung) of the same molecule?
A: 73.4 µM

Q: And the TGI (NCI-H522 lung)?
A: > 100 µM

Q: And the GI50 (NCI/ADR-RES ovarian)?
A: 33 µM

Q: And the TGI (NCI/ADR-RES ovarian)?
A: > 100 µM

Q: What about the GI50 (OVCAR-3 ovarian) of the same molecule?
A: 30.1 µM

Q: What about the TGI (OVCAR-3 ovarian) of the same molecule?
A: 87.4 µM

Q: And the GI50 (OVCAR-4 ovarian)?
A: 20.8 µM

Q: And the TGI (OVCAR-4 ovarian)?
A: 45.1 µM

Q: What about the GI50 (OVCAR-5 ovarian) of the same molecule?
A: > 100 µM

Q: What about the TGI (OVCAR-5 ovarian) of the same molecule?
A: > 100 µM

Q: And the GI50 (OVCAR-8 ovarian)?
A: 63.3 µM

Q: What about the TGI (OVCAR-8 ovarian) of the same molecule?
A: > 100 µM

Q: And the GI50 (PC-3 prostate)?
A: 18.8 µM

Q: What about the TGI (PC-3 prostate) of the same molecule?
A: 38.4 µM

Q: And the GI50 (RPMI-8226 leukemia)?
A: 29.2 µM

Q: And the TGI (RPMI-8226 leukemia)?
A: 79.7 µM

Q: What about the GI50 (RXF 393 renal) of the same molecule?
A: > 100 µM

Q: What about the TGI (RXF 393 renal) of the same molecule?
A: > 100 µM

Q: And the GI50 (SF-268 CNS)?
A: 37.7 µM

Q: What about the TGI (SF-268 CNS) of the same molecule?
A: > 100 µM

Q: And the GI50 (SF-295 CNS)?
A: > 100 µM

Q: What about the TGI (SF-295 CNS) of the same molecule?
A: > 100 µM

Q: And the GI50 (SF-539 CNS)?
A: > 100 µM

Q: And the TGI (SF-539 CNS)?
A: > 100 µM

Q: And the GI50 (SK-MEL-2 melanoma)?
A: 83.1 µM

Q: And the TGI (SK-MEL-2 melanoma)?
A: > 100 µM

Q: What about the GI50 (SK-MEL-28 melanoma) of the same molecule?
A: 44.5 µM

Q: And the TGI (SK-MEL-28 melanoma)?
A: > 100 µM

Q: And the GI50 (SK-MEL-5 melanoma)?
A: 79.4 µM

Q: And the TGI (SK-MEL-5 melanoma)?
A: > 100 µM

Q: And the GI50 (SK-OV-3 ovarian)?
A: 71.6 µM

Q: And the TGI (SK-OV-3 ovarian)?
A: > 100 µM

Q: What about the GI50 (SN12C renal) of the same molecule?
A: 69.7 µM

Q: What about the TGI (SN12C renal) of the same molecule?
A: > 100 µM

Q: What about the GI50 (SNB-19 CNS) of the same molecule?
A: > 100 µM

Q: And the TGI (SNB-19 CNS)?
A: > 100 µM

Q: What about the GI50 (SNB-75 CNS) of the same molecule?
A: 25 µM

Q: What about the TGI (SNB-75 CNS) of the same molecule?
A: 75.9 µM

Q: And the GI50 (SR leukemia)?
A: 87.6 µM

Q: What about the TGI (SR leukemia) of the same molecule?
A: > 100 µM

Q: What about the GI50 (SW-620 colon) of the same molecule?
A: 36.5 µM

Q: And the TGI (SW-620 colon)?
A: > 100 µM

Q: And the GI50 (T-47D breast)?
A: 20.6 µM

Q: What about the TGI (T-47D breast) of the same molecule?
A: 43 µM

Q: And the GI50 (TK-10 renal)?
A: > 100 µM

Q: What about the TGI (TK-10 renal) of the same molecule?
A: > 100 µM

Q: And the GI50 (U251 CNS)?
A: 96.8 µM

Q: What about the TGI (U251 CNS) of the same molecule?
A: > 100 µM

Q: And the GI50 (UACC-257 melanoma)?
A: > 100 µM

Q: And the TGI (UACC-257 melanoma)?
A: > 100 µM

Q: What about the GI50 (UACC-62 melanoma) of the same molecule?
A: 25.5 µM

Q: And the TGI (UACC-62 melanoma)?
A: 63.8 µM

Q: What about the GI50 (UO-31 renal) of the same molecule?
A: 72.8 µM

Q: What about the TGI (UO-31 renal) of the same molecule?
A: > 100 µM
